What was measured:
[1] = test system: chick myocardial cell; experiment: Survival rate of chick myocardial cells after Adriamycin induced damage (ABC immunoperoxidase staining); assay type: cell-based; settings: Adriamycin 10μ for 24 hours after 4 days in culture; BDI 150 μg/ml
Description: Hears were removed from 11 days embryos and were dissociated at 37 C. for 45 minutes with 0.25% trypsin (sigma, type III), 0.025% collagenase (sigma, type I), and 0.005% pancreatin (NBCO) prepared in calcium and magnesium free saline G containing 4% chicken serum. Then the tissue was dispersed into a single cell suspension in culture medium containing 5 g/ml DNAse I (sigma). Viable cell counts were determined by hemocyometer counting. Cells were dispersed into 60 mm culture disher (surface area 2000 mm^2) at densities of 200 cells/mm^2.
Cultures were maintained in Ham's F-12K cln^− modified and supplemented with 5% fetal bovine serum. Tissue culture plates were incubated under at constant 5% CO2 and 95% air at 37° C. Cells counted—all cells were counted in 20 randomly selected fields across the entire dish. A Zeiss microscope 25× objective having a field of view of 0.32 mm^2 was used for cell counting.
Monoclonal antibodies (diluted 1:1000 in PBS/BSA) were used. Immunostaining procedure used modified method of immunoperoxidase staining as follows.
Culture plates were added antibody of cardiac myosin before 3 hours for staining. Then culture plates continuous incubated 3 hours at 37° C.
Cell determined by recording the color and the number of microscopic fields (250×). Normal cells were light green and dead cells were brown or very dark green. […]

[2] = test system: Interleukin-2 (rIL-2); experiment: Effect of BDI on Interleukin-2 (rIL-2); assay type: in vivo; settings: n=10
Description: The methods of determination rIL-2 were regular.

[3] = test system: bone marrow stem cells (CFU-S); settings: mice, n=10
[4] = test system: white blood cells; settings: rats, 10 days of treatment
[5] = test system: peritoneal macrophage; settings: macrophages with phagocytized chick red blood cells per 100 macrophages; BDI 5.5 mg/kg ip daily for 5 days; cyclophosphamide 4.5 mg/kg ip
Description: Male mice weight 18-20 g were used in the experiments and were divided into treated (BDI) and control groups. The dosage of BDI was 5.5 mg/kg injected intraperitoneally. The control mice were injected with same volume of normal saline. These injections were repeated daily for 5 days, both treated and control group were injected intraperitoneally with cyclosphosphamide.
Added 0.02 ml of 5% washed chick red blood cell suspension to 0.5 ml of the peritoneal exudates. Shook gently to mix and incubate at 37° C. for 5 minutes. Dipped two cover slips, closed to each other, in the above mixture and incubated for 30 minutes for the migration of the macrophages along the cover slips, fixed and stained with Sharma stain. Examined microscopically for:
Phagocytic rate—number of macrophages with phagocytized chick red blood cells per 100 macrophages counted.

[6] = test system: lymphocytes; settings: 3H-TdR 1 μCi/ml, PHA stimulated
Description: 0.2 ml of formic acid was then added for digestion till the precipitate was dissolved.

[7] = test system: DNA viruses; settings: by weight; cited from earlier work
[8] = test system: host cell; settings: by weight; cited from earlier work

## COc1cccc2c1C(=O)c1c(O)c3c(c(O)c1C2=O)C[C@@](O)(C(=O)CO)C[C@@H]3O[C@H]1C[C@H](N)[C@H](O)[C@H](C)O1 [Adriamycin]
[1]
  Survival rate (living/taotalx 100%): 36.0 ± 0.25 (*20) %

## O=P1(N(CCCl)CCCl)NCCCO1 (centres unmarked) [Cyclophosphamide]
[2]
  IL-2 (U/ml) ± SD: 47.5 ± 5.5 U/ml
[3]
  Mean (CFU-S ± SD): 7.6 ± 0.8
[4]
  White blood cells x 10^3/cm^3 ± SD: 6.0 ± 0.70 10^3/cm^3
[5]
  Phagocytic (rate ± SD): 8.5 ± 0.90
[6]
  CPM ± SD (lymphoblastoid transformation): 600 ± 65 CPM

## Nc1ccn([C@@H]2O[C@H](CO)[C@@H](O)[C@@H]2O)c(=O)n1 [Cytarabine]
[7]
  Effectiveness relative to Idoxuridine: about 10 times
[8]
  Toxicity for host cell relative to Idoxuridine: 10 times
